The text below walks through data of article PMC8942502 (Journal of Enzyme Inhibition and Medicinal Chemistry, 2022).

Where two headings read alike, the source gives them in different places.

In general, IC50 refers to the concentration at which inhibition is half-maximal.

Assay [1] has as its system LNCaP cells. Further details: method as in PMID 30693539. Conditions: 72 h; cited from earlier work.
Assay [2] deals with MAO-A. Conditions: @ 100 μM; Figure 1; cited from earlier work.
In assay [3] the test system is NB4 APL cells. More on the design: method as in PMID 32003940. The conditions noted are these: cited from earlier work.
Assay [4] relates to MAO-B. Conditions: @ 100 μM; Figure 1; cited from earlier work.
Assay [5] deals with LSD1. The conditions noted are these: Figure 1; cited from earlier work.
The test system of assay [6] is MV4-11 acute myeloid leukaemia (AML) cells. Further details: method as in PMID 32003940. The conditions noted are these: cited from earlier work.
For assay [7], the target named is T1, LSD1-CoREST complex (Homo sapiens, UniProt O60341).
T1 construct: made in house; host or cells: Escherichia coli
The experiment in a line: LSD1-CoREST inhibition assay (Amplex UltraRed/HRP, H3K4 peptide). The assay is classed as biochemical. Conditions: mean ± SD from two experiments in duplicate; 10 min preincubation.

In assay [8] the test system is LNCaP cells. Put plainly: MTT cell viability assay. The assay is classed as cell-based. The conditions noted are these: Homo sapiens. On the procedure: (§1) The tested compounds have been dissolved in DMSO at […] as stock concentration. All compounds have been tested at 10 μM and 50 μM as final concentrations for WB analysis. All compounds have been used at 0.1 μM, 5 μM, 10 μM, 25 μM, 50 μM as final concentration for proliferation assays. ORY-1001 (Selleck Catalog No. S7795) was used as reference compound at the concentration of 25 μM.
(§2) Cell culture LNCaP and U937 were purchased from ATCC (Milan, Italy). LNCaP were grown in Roswell Park Memorial Institute culture medium (RPMI; EuroClone, Milan, Italy), supplemented with 10% heat-inactivated foetal bovine serum (FBS; Sigma-Aldrich, Schnellendorf, Germany), antimicrobials (100 U/mL penicillin, 100 µg/mL streptomycin, 250 ng/mL amphotericin-B), 2 mM L-glutamine (EuroClone, Milan, Italy), and 1% essential amino acids solution (MEM; EuroClone, Milan, Italy). U937 were cultured in Dulbecco’s Modified Eagle Medium (DMEM; EuroClone, Milan, Italy), supplemented with 10% heat-inactivated foetal bovine serum (FBS; Sigma-Aldrich, Schnellendorf, Germany), antimicrobials (100 U/mL penicillin, 100 µg/mL streptomycin, 250 ng/mL amphotericin-B), 2 mM L-glutamine (EuroClone). Cells have grown in standard incubator conditions at 37 °C and 5% CO2.
(§3) Cell viability was determined on LNCaP and U937 cell lines using Thiazolyl Blue Tetrazolium Bromide [3-(4,5-dimethylthiazol-2-yl)-2,5-diphenyltetrazolium bromide] (MTT; Sigma-Aldrich, Schnellendorf, Germany) assay, following manufacturer’s instructions. A total of 5 × 10^3 cells/well were plated in a 96-well plate and treated, in duplicates, and repeated for three times, with the tested compounds at different concentrations 0.1 μM, 5 μM, 10 μM, 25 μM, 50 μM as final concentrations for 48 h, and 72 h. […] Absorbance was read at a wavelength of 570 nm with a TECAN M − 200 reader (Tecan, Männedorf, Switzerland).
In general terms: Tetrazolium dyes change colour on reduction, which living cells bring about.

In assay [9] the test system is U937 cells. The experiment in a line: MTT cell viability assay. Type of assay: cell-based. Conditions: 0.1-50 μM, 48 and 72 h. On the procedure:
as §1, §2, §3

For `C#CCN(C)CCCOc1ccc(Cl)cc1Cl` [clorgyline], the half-maximal inhibitory concentration (IC50) in [1] is 63.7 ± 8.2 µM.

As to `NC1CC1c1ccc(NC(=O)c2ccc(-c3ccccc3)cc2)cc1` (stereo not shown) [1a], the MAO-A inhibition in assay [2] is given as 2%. The “cell growth arrest IC50” value in assay [3] is “low, single-digit micromolar levels”; in assay [6] it was “low, single-digit micromolar levels”. The MAO-B inhibition in [4] is on record as 8%. Also, the IC50 in assay [5] is 0.051 µM; in assay [7], 0.19 ± 0.03 µM; in assay [8] (48 h), 34.1 ± 13.2 µM; in assay [8] (72 h) it was 25.4 ± 3.2 µM. The “effect on cell viability in U937 cells” value in assay [9] is given as “almost ineffective”.
